Reference: ChEMBL document CHEMBL5725235, “3-cyclohexenyl and cyclohexyl substituted indole and indazole compounds as RORgammaT inhibitors and uses thereof” (2016)

Assay: TR-FRET Assay: To identify novel antagonists of RORgammaT, an assay was developed which employs the interaction of RORgammaT with its co-activator peptide SRC1_2. This peptide mimics the recruitment of co-activators to RORgammaT through its interaction with the LXXLL (SEQ ID NO:1) (e.g., NR box) motifs (Xie et al., J. Immunol. 175: 3800-09, 2005; Kurebayashi et al., Biochem. Biophys. Res. Commun. 315: 919-27, 2004; Jin et al., Mol. Endocrinology 24:923-29, 2010). The RORγ-Ligand Binding Domain TR-FRET Assay was run according to the following protocol.HIS-tagged RORγ-LBD protein was expressed in SF9 cells using a baculovirus expression system. The RORγ-LBD protein was purified by […] chromatography. Separately, SF9 cells not expressing any recombinant protein were lysed and the lysate was added to the purified RORγ-LBD at 0.25 ul lysate (from 10,000 SF9 cells)/nM purified protein. The mixture was then diluted in assay buffer (50 mM Tris pH 7.0, 50 mM KCl, 1 mM EDTA, 0.1 mM DTT) to obtain RORγ-LBD final concentration of 3 nM in 384-well assay plate. Compounds to be tested were injected to the assay plate using Acoustic Droplet Ejection technology by Echo 550 liquid handler (Labcyte, Calif.). A stock of biotinylated-LXXLL peptide from coactivator SRC1 (Biotin-[…]) (SEQ ID NO:2) was prepared in assay buffer and added to each well (100 nM final concentration). […]

SMILES	IC50 [nM]
CC1(C)CC(c2nn(C(=O)c3c(Cl)cccc3C(F)(F)F)c3cccc(F)c23)=CC[C@H]1C(=O)O	343
CC1(C(=O)O)CC=C(c2nn(C(=O)c3c(Cl)cccc3C(F)(F)F)c3cccc(F)c23)CC1 (configuration not stated)	21
